Results taken from patent EP0518675A2, “Cyclic renin inhibitors” (MERCK & CO. INC., priority 1991, dated 1992).
Square brackets hold non-standard residues; d marks the D form. Peptide text beside a SMILES is read from it. * marks the point of attachment. Sta = CC(C)C[C@H](N)[C@@H](O)CC(=O)O; Isovaleryl = CC(C)CC(=O)*

How the values were obtained:
[1] = system: human plasma renin; assay: human plasma renin IC50 determination at pH 7.4; format: biochemical; conditions: against human plasma renin
Description: The following method was used for in vitro evaluation of the renin inhibitors of Formula I: The human plasma renin IC50 values for inhibitors of Formula I were determined at pH 7.4 following the procedure described in J. Boger, L.S. Payne, D.S. Perlow, N.S. Lohr, M. Poe, E.H. Blaine, E. H. Elm, T.W. Schorn, B.I. Lamont, T.-Y. Lin, M. Kawai, D.H. Rich and D.F. Veber, J. Med. Chem., 28, 1779 (1985).

[2] = system: conscious sodium-deficient Rhesus monkeys; assay: intravenous evaluation of renin inhibitors in conscious sodium-deficient Rhesus monkeys (blood pressure lowering); format: in vivo; conditions: i.v. bolus injection, mean arterial pressure
Excerpt: The following methods were used for in vivo evaluation of the renin inhibitors of Formua I: Intravenous evaluation of renin inhibitors in conscious sodium-deficient Rhesus monkeys: Rhesus monkeys, male and female, weighing 2.6 - 4.5 Kg, were surgically prepared with chronic arterial and venous catheters and vascular access ports for direct monitoring of mean arterial pressure (MAPI) and heart rate (HR). The animals were maintained on a low sodium diet (1.2 mmol Na/day) plus fruit for a week, and administered LASIX (furosemide) at2.5 mg/Kg, intramuscularly the evening prior to the experiment. The animals had been trained to sit quietly in the chairs with water AD LIBIUM for the duration of the experiment. The inhibitors were administered by bolus injection using 0.5% acetic acid-5% dextrose in water as the vehicle (0.4 ml/Kg), and MAP and HRwere measured. Blood samples were withdrawn at different time intervals beginning at the nadir of hypotensive response. PRA was determined as described above. […] A projected ED50 dose for each inhibitor was calculated using the following formula: ED50 (Test Inhibitor, umoles/Kg) = ED50 (SCRIP) X [IC50 (Test Inhibitor)/IC50 (SCRIP)], where the IC50 values were determined against human plasma renin. […] Percent inhibition of monkey PRA, changes in MAP and HR were calculated and plotted against time. […]

- IC50 [1]: 3.7 nM
SMILES: CC(C)CC(=O)N[C@@H](Cc1c[nH]cn1)C(=O)N1CCC[C@H]1C(=O)N[C@@H](Cc1ccccc1)C(=O)N[C@@H](Cc1c[nH]cn1)C(=O)N[C@@H](CC(C)C)[C@@H](O)CC(=O)N[C@@H](CC(C)C)C(=O)N[C@@H](Cc1ccccc1)C(N)=O [SCRIP, Iva-His-Pro-Phe-His-Sta-Leu-Phe-NH2] (Isovaleryl-HPFH[Sta]LF-NH2)
- i.v. dose of the standard inhibitor required to lower blood pressure by 50% of the maximal response (ED50) [2]: 0.039 µmol/kg
